The record followed here is US9776990B2, “Isoindolone derivatives” (AbbVie Inc., priority 2012, dated 2017).

In assay [1] the test system is RPMI-8226. Description: Proliferation panel assay, RPMI-8226. The format is cell-based. The following applies: Homo sapiens, 120 h; Multiple Myeloma, RPMI-8226, 5 days; read-out: Cellular Proliferation EC50. As to the method: (§1) The impact of compounds of the Examples on cancer cell proliferation was determined using the breast cancer cell line MX-1 (ATCC) in a 3-day proliferation assay. MX-1 cells were maintained in RPMI supplemented with 10% FBS at 37 C.° and an atmosphere of 5% CO2. For compound testing, MX-1 cells were plated in 96-well black bottom plates at a density of 5000 cells/well in 90 μl of culture media and incubated at 37° overnight to allow cell adhesion and spreading. Compound dilution series were prepared in DMSO via a 3-fold serial dilution from 3 mM to 0.1 μM. […]
(§2) Luminescence readings from the Cell Titer Glo assay were normalized to the DMSO treated cells and analyzed using the GraphPad Prism software with sigmoidal curve fitting to obtain EC50s. The minimum significant ratio (MSR) was determined to evaluate assay reproducibility (Eastwood et al., (2006) J Biomol Screen, 11: 253-261). The overall MSR was determined to be 2.1 and a moving MSR (last six run MSR overtime) has been <2.
(§3) The compound of Example 40 was tested for its impact on proliferation of a panel of cancer cell line types (with specific cell lines tested) as set out in (Table 2). […] Cell proliferation data were analyzed as described above in the MX-1 proliferation assay to obtain the EC50 for the compounds reported in Table 2.

The subject of assay [2] is H1299. The assay can be described thus: Proliferation panel assay, H1299. The format is cell-based. Particulars: Homo sapiens, NCI-H1299, 120 h; NSCLC, H1299, 5 days; read-out: Cellular Proliferation EC50. As to the method:
as §1, §2, §3

For assay [3], the system named is breast cancer cell line MX-1. Description: MX-1 cell line proliferation assay (3-day, Cell Titer Glo). In kind it is cell-based, human. Particulars: Homo sapiens, MX1, MX-1 cells, 72 hours, read-out: Cellular proliferation: EC50. As to the method:
The impact of compounds of the Examples on cancer cell proliferation was determined using the breast cancer cell line MX-1 (ATCC) in a 3-day proliferation assay. MX-1 cells were maintained in RPMI supplemented with 10% FBS at 37 C.° and an atmosphere of 5% CO2. For compound testing, MX-1 cells were plated in 96-well black bottom plates at a density of 5000 cells/well in 90 μl of culture media and incubated at 37° overnight to allow cell adhesion and spreading. Compound dilution series were prepared in DMSO via a 3-fold serial dilution from 3 mM to 0.1 μM. The DMSO dilution series were then diluted 1:100 in phosphate buffered saline, and 10 μL of the resulted solution were added to the appropriate wells of the MX-1 cell plate. The final compound concentrations in the wells were 3, 1, 0.3, 0.1, 0.03, 0.01, 0.003, 0.001, 0.0003 and 0.0001 μM.
Luminescence readings from the Cell Titer Glo assay were normalized to the DMSO treated cells and analyzed using the GraphPad Prism software with sigmoidal curve fitting to obtain EC50s. The minimum significant ratio (MSR) was determined to evaluate assay reproducibility (Eastwood et al., (2006) J Biomol Screen, 11: 253-261).
In general terms: Cellular ATP, detected with luciferase, serves as a proxy for viable cell number.

Assay [4] relates to HepG2. Description: Proliferation panel assay, HepG2. In kind it is cell-based. Particulars: Homo sapiens, 120 h; Hepatocellular, HepG2, 5 days; read-out: Cellular Proliferation EC50. How it is done:
as §1, §2, §3

Assay [5] concerns A-375. Description: Proliferation panel assay, A-375. The format is cell-based. The following applies: Homo sapiens, 120 h; Melanoma, A-375, 5 days; read-out: Cellular Proliferation EC50. As to the method:
as §1, §2, §3

For assay [6], the system named is EJ-1. The assay can be described thus: Proliferation panel assay, EJ-1. The following applies: EJ1, 120 h; Bladder, EJ-1, 5 days; read-out: Cellular Proliferation EC50. The format is cell-based. How it is done: as §1, §2, §3
Assay [7] addresses BRD4 (BDII_E352-M457) (Homo sapiens (Human), UniProt O60885). The assay can be described thus: TR-FRET bromodomain binding assay, BRD4 second bromodomain. Particulars: His-tagged BD2, 30 nM Alexa647 probe. In outline: (§4)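 His-tagged BRD4 BD1 or BD2 (8 nM) with Eu-anti-His antibody (1 nM) and Alexa647-labelled BET-inhibitor probe (100 nM BDI, 30 nM BDII); 50 μM−0.85 nM compound, 2% DMSO, phosphate buffer pH 6.0, 1 h at room temperature. TR-FRET IC50 by 4-parameter fit, converted to Ki using probe Kd.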
(In TR-FRET formats the signal depends on donor and acceptor labels being close together.)

Assay [8] concerns OPM2. Description: Proliferation panel assay, OPM2. The format is cell-based. Particulars: Homo sapiens, OPM-2, 120 h; Multiple Myeloma, OPM2, 5 days; read-out: Cellular Proliferation EC50. How it is done:
as §1, §2, §3

Assay [9] relates to SKM1. Description: Proliferation panel assay, SKM1. In kind it is cell-based. Particulars: Homo sapiens, SKM-1, 120 h; AML, SKM1, 5 days; read-out: Cellular Proliferation EC50. As to the method: as §1, §2, §3
The test system of assay [10] is 786-0. The assay can be described thus: Proliferation panel assay, 786-0. In kind it is cell-based. Particulars: Homo sapiens, 120 h; RCC, 786-0, 5 days; read-out: Cellular Proliferation EC50. As to the method:
as §1, §2, §3

The target in assay [11] is BRD4 (BDI_K57-E168) (Homo sapiens (Human), UniProt O60885). Description: TR-FRET bromodomain binding assay, BRD4 first bromodomain. Particulars: His-tagged BD1, 100 nM Alexa647 probe. In outline: as §4

Each structure is given as a SMILES string.

In the case of `Cc1[nH]c(-c2cc(NS(C)(=O)=O)ccc2Oc2ccccc2)c2c1C(=O)CCC2` [Example 40, N-[3-(3-methyl-4-oxo-4,5,6,7-tetrahydro-2H-isoindol-1-yl)-4-phenoxyphenyl]methanesulfonamide], the EC50 in assay [1] was 94 nM; in assay [2], 360 nM; in assay [3] it was 160 nM; in assay [4] it was 320 nM; in assay [5] it was 168 nM; in assay [6], 594 nM. Moreover, the EC50 worked out at 18 nM in assay [8], 39 nM in assay [9] and 139 nM in assay [10]. Also, the results for the Ki in [7] and in assay [11] were 43 nM and 15 nM, respectively.

By Ki is commonly meant a measure of affinity in units of concentration, obtained from inhibition or displacement. Read a low Ki as higher affinity.
